Target: GST-Bcl-2 (Homo sapiens (Human), UniProt P10415)
Assay: Time Resolved-Fluorescence Resonance Energy Transfer (TR-FRET) Bcl-2 binding assay
Conditions: GST-Bcl-2 1 nM, F-Bak peptide probe 100 nM, Tb-anti-GST antibody 1 nM; Ki by Wang's equation
Summary of the method: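 Ki values derived from TR-FRET displacement of F-Bak peptide from GST-Bcl-2, detected with Tb-labelled anti-GST antibody (ex 340, em 520/495 nm). Compound dilution series started at 50 μM (2× starting concentration); room-temperature incubation 3 hours.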

Sequence of GST-Bcl-2 (P10415 whole entry): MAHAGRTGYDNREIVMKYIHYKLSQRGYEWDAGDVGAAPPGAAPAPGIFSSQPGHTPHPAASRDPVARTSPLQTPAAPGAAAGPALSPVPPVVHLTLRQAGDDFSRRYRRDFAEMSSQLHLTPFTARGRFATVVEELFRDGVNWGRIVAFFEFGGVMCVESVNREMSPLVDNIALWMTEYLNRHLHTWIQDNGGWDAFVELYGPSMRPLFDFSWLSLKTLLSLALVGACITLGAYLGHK

Point of comparison: `CN1CCC(Nc2ccc(S(=O)(=O)NC(=O)c3ccc(N4CCN(CC5=C(c6ccc(Cl)cc6)CC(C)(C)OC5)CC4)cc3Oc3cccc(Br)c3)cc2[N+](=O)[O-])CC1` [Example 160, 2-(3-bromophenoxy)-4-(4-{[4-(4-chlorophenyl)-6,6-dimethyl-5,6-dihydro-2H-pyran-3-yl]methyl}piperazin-1-yl)-N-({4-[(1-methylpiperidin-4-yl)amino]-3-nitrophenyl}sulfonyl)benzamide], Ki 0.028 nM. Against it:
- CC1(C)CCC(CN2CCN(c3ccc(C(=O)NS(=O)(=O)c4ccc(NC5CCN(Cc6ccsc6)CC5)c([N+](=O)[O-])c4)c(Oc4cccc(F)c4F)c3)CC2)=C(c2ccc(Cl)cc2)C1 [Example 136, 4-(4-{[2-(4-chlorophenyl)-4,4-dimethylcyclohex-1-en-1-yl]methyl}piperazin-1-yl)-2-(2,3-difluorophenoxy)-N-[(3-nitro-4-{[1-(thien-3-ylmethyl)piperidin-4-yl]amino}phenyl)sulfonyl]benzamide] — 6.3-fold higher, 0.177 nM
- CN(C)Cc1ccccc1Oc1cc(N2CCN(Cc3ccccc3-c3ccc(Cl)cc3)CC2)ccc1C(=O)NS(=O)(=O)c1ccc(NCC2CCOCC2)c([N+](=O)[O-])c1 [Example 31, 4-(4-((4′-chloro-1,1′-biphenyl-2-yl)methyl)piperazin-1-yl)-2-(2-((dimethylamino)methyl)phenoxy)-N-((3-nitro-4-((tetrahydro-2H-pyran-4-ylmethyl)amino)phenyl)sulfonyl)benzamide] — 72-fold higher, 2.01 nM
- CN(C)C(=O)COc1cccc(Oc2cc(N3CCN(Cc4ccccc4-c4ccc(Cl)cc4)CC3)ccc2C(=O)NS(=O)(=O)c2ccc(NCC3CCOCC3)c([N+](=O)[O-])c2)c1 [Example 105, 4-(4-((4′-chloro-1,1′-biphenyl-2-yl)methyl)piperazin-1-yl)-2-(3-(2-(dimethylamino)-2-oxoethoxy)phenoxy)-N-((3-nitro-4-((tetrahydro-2H-pyran-4-ylmethyl)amino)phenyl)sulfonyl)benzamide] — 130-fold higher, 3.57 nM
- CC1(C)CCC(CN2CCN(c3ccc(C(=O)NS(=O)(=O)c4ccc(NC5CCN(C6CCOCC6)CC5)c([N+](=O)[O-])c4)c(Oc4ccnc(N)c4)c3)CC2)=C(c2ccc(Cl)cc2)C1 [Example 273, 2-[(2-aminopyridin-4-yl)oxy]-4-(4-{[2-(4-chlorophenyl)-4,4-dimethylcyclohex-1-en-1-yl]methyl}piperazin-1-yl)-N-({3-nitro-4-[(1-tetrahydro-2H-pyran-4-ylpiperidin-4-yl)amino]phenyl}sulfonyl)benzamide] — 18-fold higher, 0.516 nM
- CC1(C)CCC(CN2CCN(c3ccc(C(=O)NS(=O)(=O)c4ccc(NCC5CCOCC5)c([N+](=O)[O-])c4)c(Oc4cnc(N)c(C5CC5)c4)c3)CC2)=C(c2ccc(Cl)cc2)C1 [Example 366, 2-[(6-amino-5-cyclopropylpyridin-3-yl)oxy]-4-(4-{[2-(4-chlorophenyl)-4,4-dimethylcyclohex-1-en-1-yl]methyl}piperazin-1-yl)-N-({3-nitro-4-[(tetrahydro-2H-pyran-4-ylmethyl)amino]phenyl}sulfonyl)benzamide] — 220-fold higher, 6.05 nM

Reference: patent publication US8952157B2, “Apoptosis-inducing agents for the treatment of cancer and immune and autoimmune diseases” (AbbVie Inc., priority 2008, dated 2015)
